Counter-ions that a name gives are not always drawn.
Key:
[1] = test system: HeLa Cervix; assay: In vitro cell proliferation assay (3H-Thymidine uptake), HeLa; format: cell-based; settings: Homo sapiens, 72 hours
Experimental: (§1) In Vitro Cell Proliferation and Cytotoxicity Assays:
(§2) Exponentially growing cultures of ten human cancerous cell lines (HL-60 Promyelocytic Leukemia, PC-3 Prostate, H-460 Lung, MDA-MB-231 Breast, MCF-7 Breast, HeLa Cervix, Colo-205 Colon, H9 Lymphoma (T Cells), U-937 Histiocytic Lymphoma (monocytes) and CaCO-2 Colon) obtained from NCCS, Pune, India were used. The in vitro cell proliferation (NCI, USA protocol) and cytotoxicity assays were carried out using standard procedures viz. ^3H-Thymidine uptake and MTS assay, respectively (For ^3H-Thymidine uptake: Cell Biology, A Laboratory Handbook, 1998, Vol 1 Ed Julio E. Celis, and For MTS assay: Promega Protocol, USA, 2000). In the ^3H-Thymidine uptake assay, cells were harvested after 72 hours onto GF/B unifilter plates (Packard, USA) using a Packard Filtermate Universal harvester and the plates were counted on a Packard TopCount 96-well liquid scintillation counter. The concentration of compound at which 50% of proliferative activity was inhibited (IC50) and the degree of toxicity of compound were calculated for representative compounds and their pharmaceutically acceptable salts described in the Examples.

[2] = test system: MCF-7 Breast; assay: In vitro cell proliferation assay (3H-Thymidine uptake), MCF-7; format: cell-based; settings: Homo sapiens, MCF7, 72 hours
Experimental: as §1, §2

[3] = test system: PC-3 Prostate; assay: In vitro cell proliferation assay (3H-Thymidine uptake), PC-3; format: cell-based; settings: Homo sapiens, 72 hours
Experimental: as §1, §2

[4] = test system: MDAMB-231 Breast; assay: In vitro cell proliferation assay (3H-Thymidine uptake), MDA-MB-231; format: cell-based; settings: Homo sapiens, 72 hours
Experimental: as §1, §2

[5] = test system: H460 Lung; assay: In vitro cell proliferation assay (3H-Thymidine uptake), H460; format: cell-based; settings: Homo sapiens, NCI-H460, 72 hours
Experimental: as §1, §2

[6] = test system: U-937 Histiocytic lymphoma (monocytes); assay: In vitro cell proliferation assay (3H-Thymidine uptake), U-937; format: cell-based; settings: Homo sapiens, 72 hours
Experimental: as §1, §2

[7] = test system: HeLa Cervix; assay: Cytotoxicity assay (MTS), HeLa; format: cell-based, human
Experimental: as §1, §2

[8] = test system: MCF-7 Breast; assay: Cytotoxicity assay (MTS), MCF-7; format: cell-based, human
Experimental: as §1, §2

[9] = test system: PC-3 Prostate; assay: Cytotoxicity assay (MTS), PC-3; format: cell-based, human
Experimental: as §1, §2

[10] = test system: MDAMB-231 Breast; assay: Cytotoxicity assay (MTS), MDA-MB-231; format: cell-based, human
Experimental: as §1, §2

[11] = test system: H460 Lung; assay: Cytotoxicity assay (MTS), H460; format: cell-based, human
Experimental: as §1, §2

[12] = test system: U-937 Histiocytic lymphoma (monocytes); assay: Cytotoxicity assay (MTS), U-937; format: cell-based, human
Experimental: as §1, §2

IC50 [1] [nM]	IC50 [2] [nM]	IC50 [3] [nM]	IC50 [4] [nM]	IC50 [5] [nM]	IC50 [6] [nM]	melting point [°C]	Structure (SMILES)	degree of toxicity HeLa Cervix [7]	degree of toxicity MCF-7 Breast [8]	degree of toxicity PC-3 Prostate [9]	degree of toxicity MDAMB-231 Breast [10]	degree of toxicity H460 Lung [11]	degree of toxicity U-937 Histiocytic lymphoma (monocytes) [12]
100 to 500	500	50 to 100	100	50	100		CN1CC[C@H](c2c(O)cc(O)c3c(=O)cc(-c4ccccc4Cl)oc23)[C@H](O)C1 (relative stereo) [Flavopiridol, cis-{2-(2-Chloro-phenyl)-5,7-dihydroxy-8-(3-hydroxy-1-methyl-piperidin-4-yl)-chromen-4-one hydrochloride}, reference compound]	+++ (above 70% toxic)	+ (30-50% toxic)	++ (50-70% toxic)	++ (50-70% toxic)	+ (30-50% toxic)	++ (50-70% toxic)
100 to 500	500 to 1000	500 to 1000	500 to 1000	5000 to 10000	100 to 1000		CN1CC[C@@H](c2c(O)cc(O)c3c(=O)cc(-c4ccccc4Cl)oc23)[C@@H]1CO [Example 14A, (+)-trans-2-(2-Chloro-phenyl)-5,7-dihydroxy-8-(2-hydroxymethyl-1-methyl-pyrrolidin-3-yl)-chromen-4-one]	++ (50-70% toxic)	NT (not toxic ≦30%)	++ (50-70% toxic)	NT (not toxic ≦30%)	NT (not toxic ≦30%)	+ (30-50% toxic)

Continued, compound first:

Structure (SMILES)	IC50 [1] [nM]	IC50 [2] [nM]	IC50 [3] [nM]	IC50 [4] [nM]	IC50 [5] [nM]	IC50 [6] [nM]	melting point [°C]	degree of toxicity HeLa Cervix [7]	degree of toxicity MCF-7 Breast [8]	degree of toxicity PC-3 Prostate [9]	degree of toxicity MDAMB-231 Breast [10]	degree of toxicity H460 Lung [11]	degree of toxicity U-937 Histiocytic lymphoma (monocytes) [12]
CN1CC[C@@H](c2c(O)cc(O)c3c(=O)cc(-c4ccccc4Br)oc23)[C@@H]1CO [Example 17, (+)-trans-2-(2-Bromo-phenyl)-5,7-dihydroxy-8-(2-hydroxymethyl-1-methyl-pyrrolidin-3-yl)-chromen-4-one]	100 to 1000	500 to 1000	1000 to 10000	100	> 10000	100 to 1000	235 to 237	+ (30-50% toxic)	+ (30-50% toxic)	NT (not toxic ≦30%)	NT (not toxic ≦30%)	NT (not toxic ≦30%)	+ (30-50% toxic)
CN1CC[C@@H](c2c(O)cc(O)c3c(=O)cc(-c4cccc(F)c4Cl)oc23)[C@@H]1CO [Example 134, (+)-trans-2-(2-Chloro-3-fluoro-phenyl)-5,7-dihydroxy-8-(2-hydroxymethyl-1-methyl-pyrrolidin-3-yl)-chromen-4-one]							221 to 223						
CN1CC[C@@H](c2c(O)cc(O)c3c(=O)cc(-c4cccc(F)c4Br)oc23)[C@@H]1CO [Example 136, (+)-trans-2-(2-Bromo-3-fluoro-phenyl)-5,7-dihydroxy-8-(2-hydroxymethyl-1-methyl-pyrrolidin-3-yl)-chromen-4-one]							237 to 239						
CN1CC[C@@H](c2c(O)cc(O)c3c(=O)cc(-c4cc(Cl)ccc4Br)oc23)[C@@H]1CO [Example 140, (+)-trans-2-(2-Bromo-5-chloro-phenyl)-5,7-dihydroxy-8-(2-hydroxymethyl-1-methyl-pyrrolidin-3-yl)-chromen-4-one]							233 to 235						

Source: patent US7884127B2, “Inhibitors of cyclin dependent kinases and their use” (Pirimal Life Sciences Ltd., priority 2002, dated 2011)
